Measured values taken from article PMC9352670 (2022).

Test system: Dm-HS-1 TTC ∆ s.c. (DNA, aptamer, no side-chain at 22 (codon 2 TTC); others as HFNAP: fluorophenyl at 19; allylamine at 25, 37; alcohol at 28, 34, 49; phenol at 31, 46; cyclopentyl at 40; cyclopropyl at 43, 58; imidazole at 52, 55, 61) GAAAGCAGGACTGGAGATCGATTCTGGTGCTGTTGATCTCCGCCATTGTGCTCCTACCCTTCACAGACCGAACTAGAGCTT
Test: microscale thermophoresis
Conditions: 5 mM KCl, 1 mM MgCl2, 1 mM CaCl2 added to HBS-P+; HBS-P+ buffer, 25 °C

SMILES: COc1cccc2c1C(=O)c1c(O)c3c(c(O)c1C2=O)C[C@@](O)(C(C)=O)C[C@@H]3O[C@H]1C[C@H](N)[C@H](O)[C@H](C)O1
- Kd: 16.2 ± 3.2 nM
